# Values quoted from earlier work as cited in US6923993B2, “Process of isolating extract from the Euphorbia obesa plant and methods for using the same” (priority 2001, dated 2005).
# What was measured:
# [1] = system: skin of mice; conditions: topically applied
# [2] = doses of 0.5 to 1 mg
# [3] = system: myelocytic leukemia; conditions: intravenous 1 mg; patients refractory to cytosine arabinoside, retinoic acid and other antileukemic drugs
# [4] = system: white blood cell (WBC) count; conditions: intravenous; patients with low WBC after cytotoxic chemotherapy
# [5] = system: HL-60 human promyelocytic leukemia cells; conditions: in vitro
compound,measurement,setting,value
"CCCCCCCCCCCCCC(=O)O[C@@H]1[C@@H](C)[C@@]2(O)[C@@H](C=C(CO)C[C@]3(O)C(=O)C(C)=C[C@@H]23)[C@H]2C(C)(C)[C@]12OC(C)=O [TPA, 12-O-tetradecanoyl-13-phorbol acetate]",effect on mouse skin,[1],tumor promoter
same,toxicity in vivo,[2],toxic effects
same,activity in myelocytic leukemia patients,[3],pharmacological activity
same,WBC count and neutrophils in the blood,[4],increase in WBC count and neutrophilia
same,differentiation and DNA synthesis of HL-60 cells,[5],stimulate differentiation and inhibit DNA synthesis
